Values quoted from earlier work as cited in US11446359B2, “Systems and methods for cardiac plexus neuromodulation” (Tulavi Therapeutics, Inc., priority 2015, dated 2022).

Key:
[1] = 2.5 ml 0.25% with epinephrine
asthma [2] = system: asthma
asthma [3] = system: asthma; remark: listed apart in the source
[4] = system: thoracic sympathetic ganglia and rami
lumbar chain = conditions: remaining 4 required a second block
[5] = in vivo
axons and Schwann cells = conditions: in vivo

## C[C@H](CCCC(C)(C)O)[C@H]1CC[C@H]2[C@@H]3CC=C4C[C@@H](O)CC[C@]4(C)[C@H]3CC[C@]12C [25-OH-cholesterol]
Sympathetic ganglia
  relative potency among cholesterol oxides: most potent

## CCCCN1CCCCC1C(=O)Nc1c(C)cccc1C (centres unmarked) [Marcaine]
[1]
  duration of relief: 1 to 10 days
  duration of relief, median: 4 days

## CCO [absolute alcohol, ethanol]
Asthma [2]; case studies, n=5, 2.5 cc absolute alcohol per injection
  patients with complete disappearance of asthma: 100%
Asthma [2]; further work, 13/18 cases
  cases with complete relief: 72%
Asthma [3]; case studies, n=3, 1 cc absolute alcohol
  patients free of asthma: 100%
Asthma [3]; further cases
  cases that obtained complete relief: 80%
[4]; 23 cases
  patients with complete relief: 75%
[4]; severe intractable asthma cases (Levin 1935)
  cases with cure or dramatic improvement in asthma: 75%
Lumbar chain
  patients that required one injection only: 19/23

## Oc1ccccc1 [phenol]
[5]
  bilateral sensory blockade: 1.3%
  intrathecal injection observed: 0.52%
  transient hypertension: 4.6%
Axons and Schwann cells
  time at which regeneration in the periphery may begin: 2 weeks
